Measurements as given in US20050197274A1, “Solid laundry detergent granules with polyanionic ammonium surfactant and non-aqueous binder” (Unilever Home & Personal Care USA, Division of Conopco, Inc., priority 2004, published 2005).

Assay: Water solubility: appearance and pH of the aqueous mix while acid and polyamine are combined
Assay type: physicochemical
Conditions: TEPA 2.0 g in water 94.0 g, before LAS acid
Description: As PAAS began forming, the solution became hazy. Upon further addition of the LAS acid, the hazy solution became a dispersion. Upon standing for hours, the dispersion formed a layer of sediment at the bottom of the beaker. Even a very diluted formulation (such as below 0.1%) was hazy. […] The solution was clear at the all time over the entire pH range, leading to the conclusion that Na-LAS was fully ionized or disassociated. […] Example 1 was repeated, except that fatty acid was used in place of LAS acid.

Observations (appearance): Clear
Structure (SMILES): NCCNCCNCCNCCN [TEPA, Tetraethylenepentamine]
